{
  "source": "paper PMC4728661",
  "about": "“Cancer Prevention and Health Benefices of Traditionally Consumed Borago officinalis Plants” (Nutrients, 2016)",
  "key": {"D. melanogaster": {"tested_on": "D. melanogaster", "test": "Genotoxicity: Somatic Mutation and Recombination Test (SMART), wing spot test, simple treatments", "assay_type": "in vivo, Drosophila melanogaster", "details": "for Genotoxicity in the Drosophila wing spot test (in words): simple treatments, all concentrations; for Diagnosis, Large Single Spots >2 Cells m = 5 / Diagnosis, Small Single Spots 1–2 Cells m = 2 / Diagnosis, Total Spots m = 2 / Diagnosis, Twin Spots m = 5 / Mutation rate, Large Single Spots >2 Cells m = 5 / Mutation rate, Small Single Spots 1–2 Cells m = 2 / Mutation rate, Total Spots m = 2 / Mutation rate, Twin Spots m = 5: simple", "description": "The D. melanogaster system was selected for the determination of the safety of B. officinalis consumption as a well-recognized method to analyze vegetable complex mixtures using SMART [31, 32]. This test was used in order to evaluate the genotoxic and antigenotoxic activity of B. officinalis leaves and petioles as well as their selected bioactive compounds [33]. This activity was measured by direct visualization of the occurrence of recessive mutations in the wing hairs of two different D. melanogaster strains. Flies from experiments carried these visible wing genetic markers: the flare (flr) strain flr^3/ln (3LR) TM3, Bd^s and the multiple wing-hair (mwh) strain mwh/mwh. The marker flare (flr^3, 3_38.3) produces individual malformed hairs and the marker multiple wing hairs (mwh, 3_0.3) produces multiple hairs per cell. Larvae used in treatments come from two types of crosses: the standard cross with flr^3/TM3, Bd^S females mated to mwh/mwh males and the reciprocal cross.\nOptimal fertile flies were anesthetized under CO2 narcotisation for cross selection and then placed in new vials for fertilization. After that, hybrid eggs from crossing were collected over an 8 h period and emerged larvae (72 ± 4 h later) were cleaned up for a few seconds in sterile distilled water to remove feeding medium rests. For genotoxicity analysis (simple treatments), groups of 100 larvae were transferred into vials containing 0.85 g of Drosophila Instant Medium (Formula 4–24, Carolina Biological Supply, Burlington, NC, USA) wetted with 4 mL of a mixture of distilled water and increasing concentrations of samples: B. officinalis BF and WF (1.25, 2.5, and 5 mg·mL^−1), RO (0.35, 0.7, 1.39 and 2.78 mM), SY (0.16, 0.32, 0.63 and 1.26 mM), SI (0.15, 0.29, 0.58 and 1.16 mM) and the mixture of these three bioactive compounds at each concentration assayed individually. Bioactive compound concentrations were chosen on the basis of their known content in B. officinalis species. […] Larvae were fed on these media until pupation (about 48 h). After emergence, resulting adult flies were sacrificed under CO2 narcotisation and stored in a 70% ethanol solution in sterile water. Emerged adults were counted for toxicity evaluation and transheterozygous wings (mwh flr^+/mwh^+ flr^3) were mounted on microscope slides and wing hair mutations (spots) scored, using a photonic microscope (Nikon) at 400× magnification for genotoxicity and antigenotoxicity evaluation.\nFor the evaluation of genotoxic effects, the frequencies of spots per fly of each treated series were compared to the concurrent negative control for each class of mutational clone as well as between simple and combined treatments for the same concentration comparisons. […] A multiple-decision procedure was used to categorize results as positive, inconclusive or negative. Inconclusive and positive results were evaluated by the non-parametric U test of Mann, Whitney and Wilcoxon. The inhibition percentage (IP) of genotoxicity was calculated from the total frequencies of spots per wing, following this formula [42]: IP = (genotoxin alone − sample + genotoxin) × 100/(genotoxin alone)(2)"}, "V79 cell line": {"tested_on": "V79 cell line", "design": "method as in doi:10.3389/conf.fgene.2015.01.0004", "details": "dose dependent, concentrations below 2 mM reduce DNA damage; cited from earlier work"}, "HL-60 cell": {"tested_on": "HL-60 cell", "details": "0.1 mM in cell medium; cited from earlier work"}, "HL-60 cells": {"tested_on": "HL-60 cells", "design": "method as in PMID 19067382", "details": "SY in extracts of Elaphomyces granulates, concentrations up to ~31 µg·mL^−1; cited from earlier work"}},
  "data": [
    {"smiles": "COc1cc(/C=C/C(=O)O)cc(OC)c1O", "note": "[SI, sinapic acid]", "values": [
      {"measurement": "Genotoxicity in the Drosophila wing spot test (in words)", "setting": "D. melanogaster", "value": "not mutagenic"},
      {"measurement": "Diagnosis, Large Single Spots >2 Cells m = 5", "setting": "D. melanogaster; 0.15 mM SI", "value": "−"},
      {"measurement": "Diagnosis, Small Single Spots 1–2 Cells m = 2", "setting": "D. melanogaster; 0.15 mM SI", "value": "−"},
      {"measurement": "Diagnosis, Total Spots m = 2", "setting": "D. melanogaster; 0.15 mM SI", "value": "−"},
      {"measurement": "Diagnosis, Twin Spots m = 5", "setting": "D. melanogaster; 0.15 mM SI", "value": "−"},
      {"measurement": "Mutation rate, Large Single Spots >2 Cells m = 5", "setting": "D. melanogaster; 0.15 mM SI", "value": "0.04 (1) spots/wing"},
      {"measurement": "Mutation rate, Small Single Spots 1–2 Cells m = 2", "setting": "D. melanogaster; 0.15 mM SI", "value": "0.38 (9) spots/wing"},
      {"measurement": "Mutation rate, Total Spots m = 2", "setting": "D. melanogaster; 0.15 mM SI", "value": "0.46 (11) spots/wing"},
      {"measurement": "Mutation rate, Twin Spots m = 5", "setting": "D. melanogaster; 0.15 mM SI", "value": "0.04 (1) spots/wing"},
      {"measurement": "Diagnosis, Large Single Spots >2 Cells m = 5", "setting": "D. melanogaster; 0.29 mM SI", "value": "−"},
      {"measurement": "Diagnosis, Small Single Spots 1–2 Cells m = 2", "setting": "D. melanogaster; 0.29 mM SI", "value": "−"},
      {"measurement": "Diagnosis, Total Spots m = 2", "setting": "D. melanogaster; 0.29 mM SI", "value": "−"},
      {"measurement": "Mutation rate, Large Single Spots >2 Cells m = 5", "setting": "D. melanogaster; 0.29 mM SI", "value": "0.10 (3) spots/wing"},
      {"measurement": "Mutation rate, Small Single Spots 1–2 Cells m = 2", "setting": "D. melanogaster; 0.29 mM SI", "value": "0.39 (12) spots/wing"},
      {"measurement": "Mutation rate, Total Spots m = 2", "setting": "D. melanogaster; 0.29 mM SI", "value": "0.48 (15) spots/wing"},
      {"measurement": "Mutation rate, Twin Spots m = 5", "setting": "D. melanogaster; 0.29 mM SI", "value": 0, "unit": "spots/wing"},
      {"measurement": "Diagnosis, Large Single Spots >2 Cells m = 5", "setting": "D. melanogaster; 0.58 mM SI", "value": "−"},
      {"measurement": "Diagnosis, Small Single Spots 1–2 Cells m = 2", "setting": "D. melanogaster; 0.58 mM SI", "value": "−"},
      {"measurement": "Diagnosis, Total Spots m = 2", "setting": "D. melanogaster; 0.58 mM SI", "value": "−"},
      {"measurement": "Mutation rate, Large Single Spots >2 Cells m = 5", "setting": "D. melanogaster; 0.58 mM SI", "value": "0.07 (2) spots/wing"},
      {"measurement": "Mutation rate, Small Single Spots 1–2 Cells m = 2", "setting": "D. melanogaster; 0.58 mM SI", "value": "0.33 (10) spots/wing"},
      {"measurement": "Mutation rate, Total Spots m = 2", "setting": "D. melanogaster; 0.58 mM SI", "value": "0.40 (12) spots/wing"},
      {"measurement": "Mutation rate, Twin Spots m = 5", "setting": "D. melanogaster; 0.58 mM SI", "value": 0, "unit": "spots/wing"},
      {"measurement": "Diagnosis, Large Single Spots >2 Cells m = 5", "setting": "D. melanogaster; 1.16 mM SI", "value": "−"},
      {"measurement": "Diagnosis, Small Single Spots 1–2 Cells m = 2", "setting": "D. melanogaster; 1.16 mM SI", "value": "−"},
      {"measurement": "Diagnosis, Total Spots m = 2", "setting": "D. melanogaster; 1.16 mM SI", "value": "−"},
      {"measurement": "Diagnosis, Twin Spots m = 5", "setting": "D. melanogaster; 1.16 mM SI", "value": "−"},
      {"measurement": "Mutation rate, Large Single Spots >2 Cells m = 5", "setting": "D. melanogaster; 1.16 mM SI", "value": "0.03 (1) spots/wing"},
      {"measurement": "Mutation rate, Small Single Spots 1–2 Cells m = 2", "setting": "D. melanogaster; 1.16 mM SI", "value": "0.23 (9) spots/wing"},
      {"measurement": "Mutation rate, Total Spots m = 2", "setting": "D. melanogaster; 1.16 mM SI", "value": "0.28 (11) spots/wing"},
      {"measurement": "Mutation rate, Twin Spots m = 5", "setting": "D. melanogaster; 1.16 mM SI", "value": "0.03 (1) spots/wing"},
      {"measurement": "Genotoxic/antigenotoxic activity", "setting": "V79 cell line", "value": "antigenotoxic"}
    ]},
    {"smiles": "COc1cc(C(=O)O)cc(OC)c1O", "note": "[SY, syringic acid]", "values": [
      {"measurement": "Apoptosis induction in HL-60", "setting": "HL-60 cell", "value": "did not induce apoptosis"},
      {"measurement": "Genotoxicity in the Drosophila wing spot test (in words)", "setting": "D. melanogaster", "value": "not mutagenic"},
      {"measurement": "Diagnosis, Large Single Spots >2 Cells m = 5", "setting": "D. melanogaster; 0.16 mM SY", "value": "−"},
      {"measurement": "Diagnosis, Small Single Spots 1–2 Cells m = 2", "setting": "D. melanogaster; 0.16 mM SY", "value": "−"},
      {"measurement": "Diagnosis, Total Spots m = 2", "setting": "D. melanogaster; 0.16 mM SY", "value": "−"},
      {"measurement": "Diagnosis, Twin Spots m = 5", "setting": "D. melanogaster; 0.16 mM SY", "value": "−"},
      {"measurement": "Mutation rate, Large Single Spots >2 Cells m = 5", "setting": "D. melanogaster; 0.16 mM SY", "value": "0.05 (2) spots/wing"},
      {"measurement": "Mutation rate, Small Single Spots 1–2 Cells m = 2", "setting": "D. melanogaster; 0.16 mM SY", "value": "0.30 (12) spots/wing"},
      {"measurement": "Mutation rate, Total Spots m = 2", "setting": "D. melanogaster; 0.16 mM SY", "value": "0.38 (15) spots/wing"},
      {"measurement": "Mutation rate, Twin Spots m = 5", "setting": "D. melanogaster; 0.16 mM SY", "value": "0.03 (1) spots/wing"},
      {"measurement": "Diagnosis, Large Single Spots >2 Cells m = 5", "setting": "D. melanogaster; 0.32 mM SY", "value": "−"},
      {"measurement": "Diagnosis, Small Single Spots 1–2 Cells m = 2", "setting": "D. melanogaster; 0.32 mM SY", "value": "−"},
      {"measurement": "Diagnosis, Total Spots m = 2", "setting": "D. melanogaster; 0.32 mM SY", "value": "−"},
      {"measurement": "Mutation rate, Large Single Spots >2 Cells m = 5", "setting": "D. melanogaster; 0.32 mM SY", "value": "0.07 (2) spots/wing"},
      {"measurement": "Mutation rate, Small Single Spots 1–2 Cells m = 2", "setting": "D. melanogaster; 0.32 mM SY", "value": "0.20 (6) spots/wing"},
      {"measurement": "Mutation rate, Total Spots m = 2", "setting": "D. melanogaster; 0.32 mM SY", "value": "0.27 (8) spots/wing"},
      {"measurement": "Mutation rate, Twin Spots m = 5", "setting": "D. melanogaster; 0.32 mM SY", "value": 0, "unit": "spots/wing"},
      {"measurement": "Diagnosis, Large Single Spots >2 Cells m = 5", "setting": "D. melanogaster; 0.63 mM SY", "value": "−"},
      {"measurement": "Diagnosis, Small Single Spots 1–2 Cells m = 2", "setting": "D. melanogaster; 0.63 mM SY", "value": "−"},
      {"measurement": "Diagnosis, Total Spots m = 2", "setting": "D. melanogaster; 0.63 mM SY", "value": "−"},
      {"measurement": "Mutation rate, Large Single Spots >2 Cells m = 5", "setting": "D. melanogaster; 0.63 mM SY", "value": "0.02 (1) spots/wing"},
      {"measurement": "Mutation rate, Small Single Spots 1–2 Cells m = 2", "setting": "D. melanogaster; 0.63 mM SY", "value": "0.19 (9) spots/wing"},
      {"measurement": "Mutation rate, Total Spots m = 2", "setting": "D. melanogaster; 0.63 mM SY", "value": "0.21 (10) spots/wing"},
      {"measurement": "Mutation rate, Twin Spots m = 5", "setting": "D. melanogaster; 0.63 mM SY", "value": 0, "unit": "spots/wing"},
      {"measurement": "Diagnosis, Large Single Spots >2 Cells m = 5", "setting": "D. melanogaster; 1.26 mM SY", "value": "−"},
      {"measurement": "Diagnosis, Small Single Spots 1–2 Cells m = 2", "setting": "D. melanogaster; 1.26 mM SY", "value": "−"},
      {"measurement": "Diagnosis, Total Spots m = 2", "setting": "D. melanogaster; 1.26 mM SY", "value": "−"},
      {"measurement": "Mutation rate, Large Single Spots >2 Cells m = 5", "setting": "D. melanogaster; 1.26 mM SY", "value": "0.06 (2) spots/wing"},
      {"measurement": "Mutation rate, Small Single Spots 1–2 Cells m = 2", "setting": "D. melanogaster; 1.26 mM SY", "value": "0.22 (7) spots/wing"},
      {"measurement": "Mutation rate, Twin Spots m = 5", "setting": "D. melanogaster; 1.26 mM SY", "value": 0, "unit": "spots/wing"},
      {"measurement": "Cytotoxic effect in HL-60", "setting": "HL-60 cells", "value": "no cytotoxic effect"}
    ]}
  ]
}
